Data reported in paper PMC12169608, “Peptidomimetic Phenoxymethyl Ketone Warheads as Potent Dual-Mode Inhibitors against SARS-CoV‑2 M^pro and Cathepsin” (Journal of Medicinal Chemistry, 2025).

Columns and labels:
[1] = test system: Vero E6 cells
[2] = molecular target: mouse cathepsin L (mCTSL) (Mus musculus, UniProt P06797); experiment: mCTSL biochemical assay
[3] = molecular target: T1, human cathepsin L (hCTSL) (Homo sapiens, UniProt P07711); experiment: hCTSL biochemical assay
T1 construct: purchased R&D Systems
T1 sequence (P07711 114-333): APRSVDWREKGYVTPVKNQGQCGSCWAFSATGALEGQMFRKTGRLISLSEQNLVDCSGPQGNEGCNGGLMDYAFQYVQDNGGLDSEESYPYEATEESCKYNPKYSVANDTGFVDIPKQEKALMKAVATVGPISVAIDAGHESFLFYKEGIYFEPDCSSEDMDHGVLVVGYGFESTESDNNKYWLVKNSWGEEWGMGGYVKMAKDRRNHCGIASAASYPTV

[4] = molecular target: mouse cathepsin B (mCTSB) (Mus musculus, UniProt P10605); experiment: mCTSB biochemical assay
mouse cathepsin B (mCTSB), sequence (P10605 80-339): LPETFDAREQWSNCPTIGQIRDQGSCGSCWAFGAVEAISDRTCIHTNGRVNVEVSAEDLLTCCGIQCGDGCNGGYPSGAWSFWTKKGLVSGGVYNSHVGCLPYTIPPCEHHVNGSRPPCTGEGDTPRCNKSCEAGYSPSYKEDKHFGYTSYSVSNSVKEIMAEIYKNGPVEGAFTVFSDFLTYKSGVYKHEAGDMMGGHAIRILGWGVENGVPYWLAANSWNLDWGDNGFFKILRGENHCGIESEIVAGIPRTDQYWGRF

[5] = pH 7.4
[6] = molecular target: luciferase-expressing VSV (ΔG) pseudotyped with Spike from SARS-CoV-2; experiment: microbe, parasite or virus in culture; type: cell-based
[7] = molecular target: human cathepsin B (hCTSB) (Homo sapiens, UniProt P07858); experiment: hCTSB biochemical assay
[8] = molecular target: SARS-CoV-2 M^pro (Severe acute respiratory syndrome coronavirus 2, UniProt P0DTD1); experiment: biochemical; type: biochemical
[9] = Kinetic solubility; conditions: PBS buffer pH 7.4
[10] = Plasma protein binding (ultra-centrifugation)
[11] = Mouse hepatocyte stability

mouse cathepsin L (mCTSL), sequence (P06797 114-334): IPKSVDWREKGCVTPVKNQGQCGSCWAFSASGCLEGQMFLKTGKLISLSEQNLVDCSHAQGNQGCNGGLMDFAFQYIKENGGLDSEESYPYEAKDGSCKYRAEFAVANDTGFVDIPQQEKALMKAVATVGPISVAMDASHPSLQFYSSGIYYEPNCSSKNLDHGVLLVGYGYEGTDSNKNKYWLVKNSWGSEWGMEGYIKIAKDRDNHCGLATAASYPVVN

N-((S)-3-(3-Fluorophenyl)-1-oxo-1-(((S)-2-oxo-5-(5-oxo-1,5-dihydro-4H-1,2,4-triazol-4-yl)-1-(2,3,5,6-tetrafluoro-4-(2-hydroxypropan-2-yl)phenoxy)pentan-3-yl)amino)propan-2-yl)-4-methoxy-1H-indole-2-carboxamide [compound 12]
pCC50 (CPE), cytotoxicity [1]: < 5.00 | pIC50 (mouse CTSL) [2]: 7.66 | hCTSL biochemical assay pIC50 [3]: 9.48 | selectivity for hCTSL over M^pro [3]: more than 500 fold | pIC50 (mouse CTSB) [4]: > 8.16 | logD [5]: 2.88 | Entry reporter assay pEC50 [6]: 5.14 | hCTSB biochemical assay pIC50 [7]: 6.65 | M^pro biochemical assay pIC50 [8]: 6.75 | kinetic solubility [9]: 5.84 µM | mouse plasma protein binding, fraction bound (Fb) [10]: 99.69% | mouse plasma protein binding, fraction unbound (Fu) [10]: 0.31% | CLint (mouse hepatocytes + ritonavir 4:1) ([11]; compound/ritonavir 4:1): 37.1 μL/min/10^6 cells | t1/2 (mouse hepatocytes + ritonavir 4:1) ([11]; compound/ritonavir 4:1): 46.7 min | CLint (mouse hepatocytes) ([11]; without ritonavir): 76.8 μL/min/10^6 cells | t1/2 (mouse hepatocytes) ([11]; without ritonavir): 22.6 min
